Holding throughout (format): cell-based, human
The test system of one test is C9-ALS iMN lines. Nature of the test: iMN survival assay (longitudinal tracking, hazard ratio vs DMSO) in C9-ALS lines. The following applies: 3 μM, 2 weeks, media change every 3 days, three C9-ALS iMN lines. As to the method:
(§1) Daily imaging was performed to collect data at multiple time points over ˜2 weeks, and then analysis of the data enabled single cell longitudinal tracking during the progressive stages of cell death. The hazard ratio (hR) derived from the Cox model is used to indicate the survival rate of neurons, where a ratio greater than 1 indicates a negative association with survival. A P value is also calculated, which functions as a statistical test of the two hazard functions using the Wald test. In addition, a standard deviation, which replicates the hR value, and survival curves are calculated and graphed. […]
(§2) Induced neuron survival assay: Hb9::RFP^+iMNs appeared between days 13-16 after retroviral transduction. […] Neurons were scored as dead when their soma was no longer detectable by RFP fluorescence. All neuron survival assays were performed at least twice, with equal numbers of neurons from three individual replicates from one of the trials being used for the quantification shown. All trials quantified were representative of other trials of the same experiment. […]

A further test has as its system sporadic ALS (sALS) iMNs. Nature of the test: iMN survival assay in sporadic ALS lines. The following applies: screen hits. As to the method: as §1, §2
Test [1] concerns healthy control iMN lines. Nature of the test: iMN survival assay in healthy control lines. The settings on record: 1 μM, 3 weeks, five healthy control lines. On the procedure:
as §1, §2

In the next test the test system is ALS patient iMNs. Nature of the test: iMN survival assay in ALS patient motor neurons (line type not specified). The settings on record: hR vs DMSO. As to the method: as §1, §2

Take `Cc1cccc(/C=N/Nc2cc(N3CCOCC3)nc(OCCc3ccccn3)n2)c1` [Apilimod]: in the test on C9-ALS iMN lines, the “iMN survival, hazard ratio of treatment vs DMSO” value is given as “significant beneficial effect”. Besides, the “potency among hit compounds efficacious against sporadic ALS patient iMNs” value in the test on sporadic ALS (sALS) iMNs is recorded as “among the most potent”. In addition, in test [1], the “iMN survival, treatment vs DMSO group” value is listed as “No significance difference”. With `CC1=NN(c2ccccc2)C(=O)C1` [edaravone], the “performance in patient motor neurons (hR) of drugs tested in ALS clinical trials” value with ALS patient iMNs is listed as “do best”. Same read-out and setting: the result for `Nc1nc2ccc(OC(F)(F)F)cc2s1` [riluzole] reads “do best”.

(Values after patent US20250377351A1, “METHOD FOR IDENTIFYING EFFECTIVE TREATMENTS AGAINST NEURODEGENERATIVE DISORDERS” (AcuraStem Incorporated, priority 2018, published 2025).)
